In ChEMBL document CHEMBL1201862, “PubChem BioAssay data set” (2004):
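Step 1: Grow cells in 96-well plates. Step 2: Expose to compound for 48 hours at 5 concentrations. Step 3: Interpolate endpoints linearly; if unreached, use highest concentration. GI50: concentration for 50% inhibition of growth.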 The source made the active and inactive calls. No stated cut-off is given here; in the data, active = GI50 up to about 1.1 µM and inactive = higher.

Columns and labels:
Experiment in all cases: inhibition of tumour cell growth, NCI panel, 48 h
SK-MEL-2 = tested on: SK-MEL-2
Malme-3M = tested on: Malme-3M
RPMI-8226 = tested on: RPMI-8226
RXF 393 = tested on: RXF 393
HOP-92 = tested on: HOP-92
M19-MEL = tested on: M19-MEL
UACC-257 = tested on: UACC-257
SK-MEL-28 = tested on: SK-MEL-28
OVCAR-4 = tested on: OVCAR-4
CAKI-1 = tested on: CAKI-1
A549 = tested on: A549
U-251 = tested on: U-251
KM-20L2 = tested on: KM-20L2
EKVX = tested on: EKVX
786-0 = tested on: 786-0
A498 = tested on: A498
HOP-62 = tested on: HOP-62
HCT-15 = tested on: HCT-15
NCI-H460 = tested on: NCI-H460
HOP-18 = tested on: HOP-18
SF-295 = tested on: SF-295
IGROV-1 = tested on: IGROV-1
UACC-62 = tested on: UACC-62
MOLT-4 = tested on: MOLT-4
HT-29 = tested on: HT-29
SN12C = tested on: SN12C
NCI-H226 = tested on: NCI-H226
SK-MEL-5 = tested on: SK-MEL-5
NCI-H23 = tested on: NCI-H23
OVCAR-5 = tested on: OVCAR-5
HL-60 = tested on: HL-60
HCT-116 = tested on: HCT-116
TK-10 = tested on: TK-10
HCC 2998 = tested on: HCC 2998
K562 = tested on: K562
SR = tested on: SR
DMS-273 = tested on: DMS-273
DMS-114 = tested on: DMS-114
SNB-75 = tested on: SNB-75
DLD-1 = tested on: DLD-1
M14 = tested on: M14
ACHN = tested on: ACHN
COLO 205 = tested on: COLO 205
UO-31 = tested on: UO-31
LXFL 529 = tested on: LXFL 529
SW-620 = tested on: SW-620
SNB-78 = tested on: SNB-78
SK-OV-3 = tested on: SK-OV-3
OVCAR-3 = tested on: OVCAR-3
OVCAR-8 = tested on: OVCAR-8
SF-539 = tested on: SF-539
KM12 = tested on: KM12
SF-268 = tested on: SF-268
SNB-19 = tested on: SNB-19
NCI-H522 = tested on: NCI-H522
CCRF-CEM = tested on: CCRF-CEM
LOX IMVI = tested on: LOX IMVI
XF498 = tested on: XF498

COCN/C(N)=N/C#N
GI50 (SK-MEL-2): > 100 µM (inactive)
GI50 (Malme-3M): > 100 µM (inactive)
GI50 (RPMI-8226): > 100 µM (inactive)
GI50 (RXF 393): > 100 µM (inactive)
GI50 (HOP-92): > 100 µM (inactive)
GI50 (M19-MEL): 41.7 µM (inactive)
GI50 (UACC-257): > 100 µM (inactive)
GI50 (SK-MEL-28): > 100 µM (inactive)
GI50 (OVCAR-4): > 100 µM (inactive)
GI50 (CAKI-1): > 100 µM (inactive)
GI50 (A549): > 100 µM (inactive)
GI50 (U-251): 27.4 µM (inactive)
GI50 (KM-20L2): > 100 µM (inactive)
GI50 (EKVX): > 100 µM (inactive)
GI50 (786-0): 80.4 µM (inactive)
GI50 (A498): > 100 µM (inactive)
GI50 (HOP-62): > 100 µM (inactive)
GI50 (HCT-15): 15.7 µM
GI50 (NCI-H460): > 100 µM (inactive)
GI50 (HOP-18): > 100 µM (inactive)
GI50 (SF-295): > 100 µM (inactive)
GI50 (IGROV-1): > 100 µM (inactive)
GI50 (UACC-62): > 100 µM (inactive)
GI50 (MOLT-4): > 100 µM (inactive)
GI50 (HT-29): > 100 µM (inactive)
GI50 (SN12C): > 100 µM (inactive)
GI50 (NCI-H226): > 100 µM (inactive)
GI50 (SK-MEL-5): > 100 µM (inactive)
GI50 (NCI-H23): > 100 µM (inactive)
GI50 (OVCAR-5): > 100 µM (inactive)
GI50 (HL-60): > 100 µM (inactive)
GI50 (HCT-116): 75 µM (inactive)
GI50 (TK-10): > 100 µM (inactive)
GI50 (HCC 2998): > 100 µM (inactive)
GI50 (K562): > 100 µM (inactive)
GI50 (SR): 15.1 µM (inactive)
GI50 (DMS-273): 27.9 µM (inactive)
GI50 (DMS-114): 18.4 µM (inactive)
GI50 (SNB-75): > 100 µM (inactive)
GI50 (DLD-1): 42 µM (inactive)
GI50 (M14): > 100 µM (inactive)
GI50 (ACHN): > 100 µM (inactive)
GI50 (COLO 205): 21.7 µM (inactive)
GI50 (UO-31): > 100 µM (inactive)
GI50 (LXFL 529): > 100 µM (inactive)
GI50 (SW-620): 15.7 µM (inactive)
GI50 (SNB-78): > 100 µM (inactive)
GI50 (SK-OV-3): > 100 µM (inactive)
GI50 (OVCAR-3): > 100 µM (inactive)
GI50 (OVCAR-8): > 100 µM (inactive)
GI50 (SF-539): > 100 µM (inactive)
GI50 (KM12): > 100 µM (inactive)
GI50 (SF-268): 85.9 µM (inactive)
GI50 (SNB-19): > 100 µM (inactive)
GI50 (NCI-H522): > 100 µM (inactive)
GI50 (CCRF-CEM): > 100 µM (inactive)

CCOC(=O)C1=C(c2ccccc2)N(C(C)=O)Cc2ccccc21
GI50 (SK-MEL-2): 17.5 µM (inactive)
GI50 (Malme-3M): 19.1 µM (inactive)
GI50 (RPMI-8226): 13.5 µM (inactive)
GI50 (RXF 393): 19.4 µM (inactive)
GI50 (LOX IMVI): 16 µM (inactive)
GI50 (HOP-92): 3.1 µM (inactive)
GI50 (M19-MEL): 18.8 µM (inactive)
GI50 (UACC-257): 16.9 µM (inactive)
GI50 (SK-MEL-28): 16.8 µM (inactive)
GI50 (OVCAR-4): 16.7 µM (inactive)
GI50 (A549): 18.4 µM (inactive)
GI50 (U-251): 17.2 µM (inactive)
GI50 (KM-20L2): 21.6 µM (inactive)
GI50 (EKVX): 29.6 µM (inactive)
GI50 (786-0): 28.1 µM (inactive)
GI50 (HOP-62): 19.6 µM (inactive)
GI50 (HCT-15): 21.4 µM
GI50 (NCI-H460): 14.3 µM (inactive)
GI50 (HOP-18): 28.1 µM (inactive)
GI50 (SF-295): 13.9 µM (inactive)
GI50 (IGROV-1): 23.6 µM (inactive)
GI50 (UACC-62): 12.2 µM (inactive)
GI50 (MOLT-4): 12 µM (inactive)
GI50 (HT-29): 16.3 µM (inactive)
GI50 (SN12C): 21.9 µM (inactive)
GI50 (NCI-H226): 14.9 µM (inactive)
GI50 (SK-MEL-5): 12.6 µM (inactive)
GI50 (NCI-H23): 12.6 µM (inactive)
GI50 (OVCAR-5): 21.7 µM (inactive)
GI50 (HL-60): 11 µM (inactive)
GI50 (HCT-116): 14.5 µM (inactive)
GI50 (TK-10): 45.3 µM (inactive)
GI50 (HCC 2998): 24.7 µM (inactive)
GI50 (K562): 14.5 µM (inactive)
GI50 (SR): 9.73 µM (inactive)
GI50 (DMS-273): 15.1 µM (inactive)
GI50 (DMS-114): 10.4 µM (inactive)
GI50 (SNB-75): 18.6 µM (inactive)
GI50 (DLD-1): 28.7 µM (inactive)
GI50 (M14): 18.5 µM (inactive)
GI50 (ACHN): 16.1 µM (inactive)
GI50 (COLO 205): 15.9 µM (inactive)
GI50 (UO-31): 18.1 µM (inactive)
GI50 (LXFL 529): 22.5 µM (inactive)
GI50 (SW-620): 34.8 µM (inactive)
GI50 (SK-OV-3): 29.9 µM (inactive)
GI50 (OVCAR-3): 18.6 µM (inactive)
GI50 (OVCAR-8): 21.3 µM (inactive)
GI50 (SF-539): 16.3 µM (inactive)
GI50 (KM12): 15 µM (inactive)
GI50 (SF-268): 19 µM (inactive)
GI50 (SNB-19): 44.6 µM (inactive)
GI50 (NCI-H522): 16.9 µM (inactive)
GI50 (CCRF-CEM): 16.4 µM (inactive)
GI50 (XF498): 11.9 µM (inactive)
